According to ChEMBL document CHEMBL1201862, “PubChem BioAssay data set” (2004):
Calls of active or inactive are those of the source.

Columns and labels:
[1] = luciferase reporter signal suppression in cells – H4 neuroglioma cells, luminescence, dose response (AID 1990); type: functional, cell-based
[2] = Luminescence Cell-Based Dose Response HTS to Identify Inhibitors of 5'UTR Stem-Loop Driven Prion Protein mRNA Translation in H4 Neuroglioblastoma Cells. [Related pubchem assays: 1827 (Project Summary), 1813 (Primary HTS)]; type: functional
[3] = alpha-synuclein stem-loop luciferase translation blockers – H4 neuroglioma cells, luminescence, confirmation (AID 1988); type: functional, cell-based
cells [4] = settings: A549
[5] = target: RNA-editing ligase 1, mitochondrial (Trypanosoma brucei brucei, UniProt P86926); assay: inhibition of trypanosome RNA editing ligase – biochemical, fluorescence, Trypanosoma brucei, dose response (AID 1117295); type: functional
[6] = target: T1, Ubiquitin-conjugating enzyme E2 N (Homo sapiens, UniProt P61088); type: functional;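 note: Dose-response confirmation in a TR-FRET assay detecting UBC13-driven polyubiquitin chain formation, inhibition measured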
T1 sequence (P61088 whole entry): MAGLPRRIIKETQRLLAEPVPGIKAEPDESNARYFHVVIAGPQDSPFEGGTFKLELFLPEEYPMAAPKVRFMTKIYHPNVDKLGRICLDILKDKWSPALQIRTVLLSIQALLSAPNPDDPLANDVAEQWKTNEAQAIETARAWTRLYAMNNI

[7] = microbe, parasite or virus in culture; type: functional; settings: Mycobacterium tuberculosis
Major prion protein = Major prion protein (Homo sapiens, UniProt P04156); type: functional, cell-based
cells [8] = assay: cells
[9] = target: NAD-dependent protein deacylase sirtuin-5, mitochondrial (Homo sapiens, UniProt Q9NXA8); assay: sirtuin-5 deacylation blockers, concentration series – biochemical, fluorescence imaging, cherry-pick, set 5, dose response (AID 720591);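 note: desuccinylation of succinyl peptide AMC substrate read as fluorescence after trypsin release; potency of inhibitors that lower fluorescence and may act on trypsin instead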
cells [10] = settings: HEK293;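 note: cells exposed to compound for 48 hours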
[11] = HEK293 Cytotoxicity Assay Measured in Cell-Based System Using Plate Reader - 7071-01_Inhibitor_Dose_CherryPick_Activity_Set2.; type: functional
HEK293 = assay: viability loss in HEK293T cells – cell-based, ATP luminescence, cherry-pick samples, cytotoxicity control, dose response (AID 687005); type: functional; settings: Homo sapiens;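 note: cells exposed to compound for 48 hours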
HeLa = assay: viability loss in HeLa cells – cell-based, ATP luminescence, cherry-pick samples, cytotoxicity control, dose response (AID 687004); type: functional; settings: Homo sapiens
[12] = COV434 cell viability loss – plate reader, dry powder, SA7, cytotoxicity control for PAX8 inhibitor project, dose response (AID 743145); type: functional, cell-based
[13] = PAX5 cellular inhibition readout – cell-based, plate reader, dry powder samples, selectivity assay for PAX8 inhibitor project, dose response (AID 743047); type: functional;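 note: HEK293 cells carrying a Pax5 driven CD19 promoter luciferase reporter; potency of inhibitors that lower reporter luminescence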
[14] = inhibitors acting on PAX2 in cells – cell-based, plate reader, dry powder samples, selectivity assay for PAX8 inhibitor project, dose response (AID 743048); type: functional;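 note: HEK293 cells carrying a WT1 promoter luciferase reporter driven by expressed Pax2; potency is for inhibition of Pax2 driven reporter signal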
Paired box protein Pax-8 = Paired box protein Pax-8 (Homo sapiens, UniProt Q06710); assay: PAX8 transcriptional activity inhibition in RMG-I – RMG-I cells, luciferase, cherry-pick, dose response (AID 687027); type: functional, cell-based;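 note: luciferase reporter driven by Pax8 target thyroperoxidase promoter measured by SteadyGlo luminescence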
[15] = PAX8-dependent cell viability loss – plate reader, dry powder, dose response (AID 743049); type: functional, cell-based
[16] = OVCAR8 cell viability loss – plate reader, dry powder samples, PAX8 project, dose response (AID 743197); type: functional, cell-based; settings: OVCAR-8
[17] = A2780 cell killing – plate reader, dry powder samples, cytotoxicity control, dose response (AID 743046); type: functional, cell-based
[18] = Late stage assay provider results from the probe development effort to identify inhibitors of the Plasmodium falciparum M18 Aspartyl Aminopeptidase (M18AAP): radiolabel-based cell-based dose response assay to identify compounds that inhibit P. falciparum growth in RBCs, Set 2..; type: functional

SMILES: CCC(=O)NCCCNc1nc2c(C)cccc2cc1C#N
- EC50 [1]: 25.9 µM (active)
- EC50 [2]: > 120 µM (not active)
- EC50 [3]: > 120 µM (not active)
- AC50 (cells [4]): > 52 µM (inactive)

SMILES: COc1ccc(C[C@H]2CN3C(=NC[C@H]3Cc3ccccc3)N2CCNC(=O)CCC2CCCCC2)cc1
- IC50 [5]: > 96.6 µM (inactive)
- IC50 [6]: > 20 µM (inactive)
- CC50 [7]: 23.8 µM (active)

SMILES: CN(C)S(=O)(=O)c1ccc(N2CCCC2)c(C(=O)Nc2nccs2)c1
- IC50 (Major prion protein): 14.8 µM (inactive)
- IC50 (cells [8]): > 138 µM (inactive)

SMILES: CC(C)(C)OC(=O)N(CCc1ccccc1)Cc1ccccc1OCc1cccc(NC(=O)C2CCCC2)c1
- AC50 [9]: > 30 µM (inactive)

SMILES: Cc1cccn2c(=O)c3cc(C(=O)NCc4ccc(F)cc4)c(=N)n(CCCN4CCOCC4)c3nc12
- AC50 (cells [10]): > 52 µM (inactive)

SMILES: C[C@H]1CN([C@@H](C)CO)S(=O)(=O)c2ccc(C#Cc3cccc(F)c3)cc2O[C@@H]1CN(C)C(=O)NC1CCCCC1
- AC50 [11]: 8.15 µM (active)
- AC50 (HEK293): 8.15 µM (active)
- AC50 (HeLa): 34.4 µM (active)

SMILES: CCCC#Cc1ccc([C@@H]2[C@@H](C#N)N(S(=O)(=O)c3cccc(F)c3)[C@H]2CO)cc1
- AC50 [12]: > 70 µM (inactive)
- AC50 [13]: 24.2 µM (active)
- AC50 [14]: 28.2 µM (active)
- AC50 (Paired box protein Pax-8): 5.96 µM (active)
- AC50 [15]: 37 µM (active)
- AC50 [16]: 43.1 µM (active)

SMILES: COc1ccc2c3c(n(C)c2c1)[C@H](CO)N(C(=O)Nc1ccc(F)cc1)CC31CCN(S(=O)(=O)c2cccc(C)c2)CC1
- AC50 (Paired box protein Pax-8): 7.72 µM (active)
- AC50 [17]: 38.8 µM (active)
- AC50 [16]: 58 µM (active)

SMILES: COc1ccc(CCNc2c3c(nc4ccccc24)CCCC3)cc1OC
- IC50 [18]: 16.5 µM (inactive)
